# Measurements as given in patent US20100137449A1, “SUBSTITUTED 1,3-CYCLOPENTADIONE MULTI-TARGET PROTEIN KINASE MODULATORS OF CANCER, ANGIOGENESIS AND THE INFLAMMATORY PATHWAYS ASSOCIATED THEREWITH” (METAPROTEOMICS, LLC, priority 2007, published 2010).
# Marks after values point to notes of the source that are not given here.
# Columns and labels:
# Bmx(h) = target: T1, Bmx(h) (Homo sapiens, UniProt P51813); experiment: KinaseProfiler Assay
# T1 sequence (P51813 1-675): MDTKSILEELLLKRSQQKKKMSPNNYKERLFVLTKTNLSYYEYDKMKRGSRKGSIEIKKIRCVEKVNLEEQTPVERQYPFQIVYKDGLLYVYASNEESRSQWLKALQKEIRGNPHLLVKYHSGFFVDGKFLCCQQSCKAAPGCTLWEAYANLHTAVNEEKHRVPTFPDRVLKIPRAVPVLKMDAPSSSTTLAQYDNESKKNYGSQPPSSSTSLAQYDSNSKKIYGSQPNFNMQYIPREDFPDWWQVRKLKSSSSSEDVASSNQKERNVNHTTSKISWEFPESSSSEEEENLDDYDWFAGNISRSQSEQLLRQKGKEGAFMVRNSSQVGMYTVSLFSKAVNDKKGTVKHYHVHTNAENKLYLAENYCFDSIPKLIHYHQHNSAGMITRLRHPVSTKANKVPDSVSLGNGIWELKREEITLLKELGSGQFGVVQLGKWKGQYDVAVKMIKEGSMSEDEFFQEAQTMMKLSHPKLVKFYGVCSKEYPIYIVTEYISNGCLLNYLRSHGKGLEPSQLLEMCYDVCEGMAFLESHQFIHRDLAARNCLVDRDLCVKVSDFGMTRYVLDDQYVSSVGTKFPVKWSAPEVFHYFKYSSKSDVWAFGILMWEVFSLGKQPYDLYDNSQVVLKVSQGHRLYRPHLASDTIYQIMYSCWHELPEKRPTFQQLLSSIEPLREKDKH
# endothelial cells = experiment: Proliferation assay (DNA content, Hoechst 33258); format: cell-based
# Protocol: Methodology—A day before the assay, 1×10^4 endothelial cells were plated in quadruplicate in 24-well plates ad grown in adequate complete medium over night. Cells were then treated with 10 ug/ml and 20 ug/ml of each drug. […] The dilutions and concentrations of the dyes were chosen to yield appropriate dye/base pair ratios that are crucial to obtain maximal linearity and sensitivity of the DNA quantification assays. After an incubation time of ˜10 min, fluorescence intensities were measure. All investigations were generally performed at room temperature with the solutions protected from light. Spectrofluorimetric measurements were performed with Spectramax Gemini XS. […] Florescence values were converted into DNA concentrations according to the fluorescence intensities of DNA standard calibration curves.
# HUVEC = experiment: Migration wound healing assay; format: cell-based
# Protocol: Methodology—A day before the assay, 5×10^5 endothelial cells were plated in E-well plates and grown in adequate complete medium over night. Confluent HUVEC monolayers were then scraped to create a wound. Cells were the treated with 20 ug/ml of each drug. After wounding and 6 hours later, two different fields of each wound were photographed with a phase-contrast microscope. Measurements of the width of each wound were made in each experimental condition. At the start of the experiment, the wound size was measured and scored as 100%. After 6 hours, the width of the remaining wound was measured and average percent wound closure was calculated.
# rat aortic rings = experiment: Ex vivo rat aortic ring angiogenesis assay; format: cell-based
# Protocol: These ex vivo organo-typic cultures were treated with single compound. […] Neovascularization was evaluated as a marker of the observed angiogenic response.
# Statistical analysis—Analysis of variance was performed on the six observations per treatment for the controls and two test concentrations after normalizing to the dimethyl sulfoxide control. The probability of a type I error was set at the nominal five percent level.
smiles,measurement,setting,value
"CC(C)CCC(=O)[C@]1(O)C(O)=C(C(=O)C(C)C)C(=O)[C@H]1CCC(C)C [TH1, tetrahydro-isocohumulone]",activity in inhibiting BMX in comparison with TH4 and TH5,Bmx(h); 100 μg/ml,about 50%
"CCC(C)C(=O)C1=C(O)[C@@](O)(C(=O)CCC(C)C)[C@H](CCC(C)C)C1=O (stereo partly shown) [TH4, tetrahydro-isoadhumulone]",inhibition of BMX kinase,Bmx(h); 100 μg/mL,inhibit it almost completely
"COc1cc(O)c(CC=C(C)C)c(O)c1C(=O)/C=C/c1ccc(O)cc1 [Xanthohumol, xanthohumol]",Relative DNA Content vs Dimethyl Sulfoxide Controls,"endothelial cells; 24 Hours, 10 μg/mL",95
same,Relative DNA Content vs Dimethyl Sulfoxide Controls,"endothelial cells; 24 Hours, 20 μg/mL",66**
same,Relative DNA Content vs Dimethyl Sulfoxide Controls,"endothelial cells; 48 Hours, 10 μg/mL",82**
same,Relative DNA Content vs Dimethyl Sulfoxide Controls,"endothelial cells; 48 Hours, 20 μg/mL",57**
same,Relative DNA Content vs Dimethyl Sulfoxide Controls,"endothelial cells; 72 Hours, 10 μg/mL",71**
same,Relative DNA Content vs Dimethyl Sulfoxide Controls,"endothelial cells; 72 Hours, 20 μg/mL",42**
same,Summary of Effects: Proliferation,endothelial cells; summary table,−60%
same,Relative Percent Wound Closure at Six Hours vs Dimethyl Sulfoxide Controls,"HUVEC; 20 μg/mL, HUVEC, six hours",45** Percent
same,wound closure (in words),"HUVEC; 20 ug/ml, 6 hours",most active of the test materials
same,Summary of Effects: Migration,HUVEC; summary table,−60%
same,Relative Number of Vessels vs Dimethyl Sulfoxide Controls,rat aortic rings; 5.0 μg/mL,95.9
same,Relative Number of Vessels vs Dimethyl Sulfoxide Controls,rat aortic rings; 20 μg/mL,100
same,vessel growth (in words),rat aortic rings; 20 and 5 μg/mL,not active
same,Summary of Effects: Aortic Angiogenesis,rat aortic rings; summary table,Not Active
